Tested on: human C3A liver cell cultures
Assay: Microarray differential expression of cDNAs in treated human C3A liver cell cultures
Type: cell-based
Conditions: change vs untreated C3A cells
Excerpt: Incyte clones represent template sequences derived from the LIFESEQ GOLD assembled human sequence database (Incyte Genomics). In cases where more than one clone was available for a particular template, the 5′-most clone in the template was used on the microarray. The GENEALBUM GEM series 1-6 microarrays (Incyte Genomics) contain 52,616 array elements which represent 17,472 annotated clusters and 35,144 unannotated clusters. The HUMAN GENOME GEM series 1-3 microarrays (Incyte Genomics) contain 28,626 array elements which represent 10,068 annotated clusters and 18,558 unannotated clusters. For the UNIGEM series microarrays (Incyte Genomics), Incyte clones were mapped to non-redundant Unigene clusters (Unigene database (build 46), NCBI; Shuler (1997) J Mol Med 75:694-698), and the 5′ clone with the strongest BLAST alignment (at least 90% identity and 100 bp overlap) was chosen, verified, and used in the construction of the microarray. The UNIGEM V microarray (Incyte Genomics) contains 7075 array elements which represent 4610 annotated genes and 2,184 unannotated clusters.
To construct microarrays, cDNAs were amplified from bacterial cells using primers complementary to vector sequences flanking the cDNA insert. […] Amplified cDNAs were then purified using […]-400 columns (APB). Purified cDNAs were immobilized on polymer-coated glass slides. Glass microscope slides (Corning, Corning N.Y.) were cleaned by ultrasound in 0.1% SDS and acetone, with extensive distilled water washes between and after treatments. Glass slides were etched in 4% hydrofluoric acid (VWR Scientific Products, West Chester Pa.), washed thoroughly in distilled water, and coated with 0.05% aminopropyl silane (Sigma Aldrich) in 95% ethanol. Coated slides were cured in a 110° C. oven. cDNAs were applied to the coated glass substrate using a procedure described in U.S. Pat. No. 5,807,522. One microliter of the cDNA at an average concentration of 100 ng/ul was loaded into the open capillary printing element by a high-speed robotic apparatus which then deposited about 5 nl of cDNA per slide.
Microarrays were UV-crosslinked using a […] UV-crosslinker (Stratagene), and then washed at room temperature once in 0.2% SDS and three times in distilled water. Non-specific binding sites were blocked by incubation of microarrays in 0.2% casein in phosphate buffered saline (Tropix, Bedford Mass.) for 30 minutes at 60° C. followed by washes in 0.2% SDS and distilled water as before.
Early confluent C3A cells (ATTC, Manassas Va.) were treated with captopril (0.5, 2, 48, and 60 μg/ml) for 1, 3, and 6 hours. Early confluent C3A cells were treated with enalapril (0.5, 2, 48, and 60 μg/ml) for 1, 3, and 6 hours. Early confluent C3A cells were treated with LY294002 (0.5, 2, 15, and 25 μg/ml) for 1, 3, and 6 hours. Early confluent C3A cells were starved of insulin for 3 days prior to treatment, then treated with LY294002 (10 μM) for 2, 24, 36, and 72 hours in the presence of insulin. Early confluent C3A cells were treated with DES (1, 10, and 100 μM) for 1, 3, and 6 hours. Early confluent C3A cells were treated with dexamethasone (1 and 20 μM) for 0, 2, 6, and 24 hours. Early confluent C3A cells were treated with MCA (0.5 and 10 μM) for 2, 6, and 24 hours. In all cases mRNA from untreated early confluent cells were prepared in parallel as described below.
Cells were harvested and lysed in 1 ml of TRIZOL reagent (5×10^6 cells/ml; Life Technologies). The lysates were vortexed thoroughly and incubated at room temperature for 2-3 minutes and extracted with 0.5 ml chloroform. The extract was mixed, incubated at room temperature for 5 minutes, and centrifuged at 15,000 rpm for 15 minutes at 4° C. The aqueous layer was collected and an equal volume of isopropanol was added.

Cc1ccc2cc3c(ccc4ccccc43)c3c2c1CC3 [MCA, 3-methylcholanthrene]
expression level of cDNA clone 72713: 3 | expression level of cDNA clone 85606: 2.96 | expression level of cDNA clone 118501: 4.54 | expression level of cDNA clone 121785: 3.3 | expression level of cDNA clone 136073: 3.1 | expression level of cDNA clone 279898: 5.48 | expression level of cDNA clone 311346: 4.59 | expression level of cDNA clone 318486: 4.11 | expression level of cDNA clone 408886: 4.93 | expression level of cDNA clone 450856: 2.89 | expression level of cDNA clone 452321: 4.3 | expression level of cDNA clone 454839: 3.4 | expression level of cDNA clone 462069: 2.41 | expression level of cDNA clone 481402: 3.22 | expression level of cDNA clone 510056: 5.65 | expression level of cDNA clone 511448: 3.05 | expression level of cDNA clone 560115: −2.61 | expression level of cDNA clone 604019: 3.28 | expression level of cDNA clone 630625: 2.25 | expression level of cDNA clone 669498: −2.97 | expression level of cDNA clone 701484: 2.51 | expression level of cDNA clone 872017: 2.85 | expression level of cDNA clone 1308112: 2.28 | expression level of cDNA clone 1316801: 3.38 | expression level of cDNA clone 1379063: −3.63 | expression level of cDNA clone 1381654: 2.64 | expression level of cDNA clone 1457424: 2.93 | expression level of cDNA clone 1522880: 2.74 | expression level of cDNA clone 1560906: 3.13 | expression level of cDNA clone 1616783: 2.63 | expression level of cDNA clone 1619292: −2.8 | expression level of cDNA clone 1623214: −3.12 | expression level of cDNA clone 1630990: 3.34 | expression level of cDNA clone 1696224: 4.4 | expression level of cDNA clone 1756875: 2.99 | expression level of cDNA clone 1786554: 2.67 | expression level of cDNA clone 1833362: −2.33 | expression level of cDNA clone 1890576: −3.07 | expression level of cDNA clone 1930235: 2.93 | expression level of cDNA clone 1975268: −2.51 | expression level of cDNA clone 1998269: 2.46 | expression level of cDNA clone 2055867: −2.67 | expression level of cDNA clone 2120743: 2.97 | expression level of cDNA clone 2123516: 3.83 | expression level of cDNA clone 2195427: 2.32 | expression level of cDNA clone 2232658: 2.25 | expression level of cDNA clone 2252107: 2.44 | expression level of cDNA clone 2293496: −2.88 | expression level of cDNA clone 2343348: 2.89 | expression level of cDNA clone 2511277: 3.07 | expression level of cDNA clone 2513883: 3.67 | expression level of cDNA clone 2520894: 3.21 | expression level of cDNA clone 2579218: 2.42 | expression level of cDNA clone 2660756: 2.25 | expression level of cDNA clone 2675232: 3.09 | expression level of cDNA clone 2695371: 2.68 | expression level of cDNA clone 2708055: 2.45 | expression level of cDNA clone 2756333: 2.66 | expression level of cDNA clone 2757583: 4.31 | expression level of cDNA clone 2765271: 2.25 | expression level of cDNA clone 2822027: 2.96 | expression level of cDNA clone 2825358: 2.44 | expression level of cDNA clone 2831490: 2.48 | expression level of cDNA clone 2860918: −3.2 | expression level of cDNA clone 2884613: 2.2 | expression level of cDNA clone 2891601: 2.56 | expression level of cDNA clone 2912637: −4.29 | expression level of cDNA clone 2921991: −3.43 | expression level of cDNA clone 2955163: 3.24 | expression level of cDNA clone 2956444: 3.04 | expression level of cDNA clone 3074113: 3.03 | expression level of cDNA clone 3108506: 3.02 | expression level of cDNA clone 3158828: 2.67 | expression level of cDNA clone 3222802: 3.23 | expression level of cDNA clone 3225977: 2.59 | expression level of cDNA clone 3381870: 2.3 | expression level of cDNA clone 3407653: 2.7 | expression level of cDNA clone 3472927: 2.77 | expression level of cDNA clone 3493381: 2.62 | expression level of cDNA clone 3606046: 3.24 | expression level of cDNA clone 3792988: 3.23 | expression level of cDNA clone 4019706: 3.55 | expression level of cDNA clone 4070979: 2.44 | expression level of cDNA clone 4091186: 2.64 | expression level of cDNA clone 4092112: 3.55 | expression level of cDNA clone 4203937: 7.13 | expression level of cDNA clone 4246966: 3.03 | expression level of cDNA clone 4254855: 2.3 | expression level of cDNA clone 4284384: 2.73 | expression level of cDNA clone 4287327: −2.54 | expression level of cDNA clone 4403805: 2.4 | expression level of cDNA clone 4508879: 2.68 | expression level of cDNA clone 4549259: 2.53 | expression level of cDNA clone 4721130: 3.57 | expression level of cDNA clone 5093071: 2.36 | expression level of cDNA clone 5102731: 2.33 | expression level of cDNA clone 5266015: 2.47 | expression level of cDNA clone 5266376: 2.54 | expression level of cDNA clone 5512044: 2.26

C[C@@H]1C[C@H]2[C@@H]3CCC4=CC(=O)C=C[C@]4(C)[C@@]3(F)[C@@H](O)C[C@]2(C)[C@@]1(O)C(=O)CO [Dexamethasone]
expression level of cDNA clone 26474: −4.2 | expression level of cDNA clone 63038: −2.36 | expression level of cDNA clone 118501: 2.79 | expression level of cDNA clone 167081: 2.14 | expression level of cDNA clone 172023: −5.8 | expression level of cDNA clone 237027: −2.85 | expression level of cDNA clone 630625: 2.52 | expression level of cDNA clone 990375: −2.5 | expression level of cDNA clone 1379063: −3.42 | expression level of cDNA clone 1381654: 2.57 | expression level of cDNA clone 1441245: −2.3 | expression level of cDNA clone 1448718: −3.1 | expression level of cDNA clone 1468660: −3.3 | expression level of cDNA clone 1559756: 2.47 | expression level of cDNA clone 1616783: 2.55 | expression level of cDNA clone 1619292: −4.4 | expression level of cDNA clone 1623214: −2.25 | expression level of cDNA clone 1630990: 2.86 | expression level of cDNA clone 1696224: 2.83 | expression level of cDNA clone 1786554: 2.66 | expression level of cDNA clone 1833362: −3.7 | expression level of cDNA clone 1834236: −2.3 | expression level of cDNA clone 1846209: 2.2 | expression level of cDNA clone 1890576: −2.5 | expression level of cDNA clone 1975268: −3.35 | expression level of cDNA clone 1998269: 2.44 | expression level of cDNA clone 2046717: 2.8 | expression level of cDNA clone 2048551: 2.91 | expression level of cDNA clone 2120743: 3.25 | expression level of cDNA clone 2123516: 2.66 | expression level of cDNA clone 2160794: −2.51 | expression level of cDNA clone 2195427: 2.3 | expression level of cDNA clone 2343348: 2.18 | expression level of cDNA clone 2470485: −2.8 | expression level of cDNA clone 2513883: 3.93 | expression level of cDNA clone 2660756: 2.21 | expression level of cDNA clone 2757583: 4.93 | expression level of cDNA clone 2822027: 3 | expression level of cDNA clone 2921991: −2.95 | expression level of cDNA clone 2925373: −2.63 | expression level of cDNA clone 2933775: 4.32 | expression level of cDNA clone 3028719: −2.6 | expression level of cDNA clone 3084204: −2.47 | expression level of cDNA clone 3109384: 2.6 | expression level of cDNA clone 3170010: −3.67 | expression level of cDNA clone 3284411: −2.4 | expression level of cDNA clone 3715059: −3.17 | expression level of cDNA clone 4091186: 2.45 | expression level of cDNA clone 4508879: 2.86 | expression level of cDNA clone 5399371: 2.63
